Test results taken from patent publication US10955409B2, “Method for the identification of sensory neuron subtypes in ex vivo preparations” (AnaBios Corporation, priority 2017, dated 2021).

System: Aδ- and C-type neurons (human DRG neurons)
Assay: Electric field stimulation (EFS) live cell calcium imaging of human DRG neurons
Assay type: cell-based
Settings: high voltage 15V/cm supra-threshold stimulation
Method: DRGs from the first thoracic vertebra (T1) through the first sacral vertebra (S1) were used in the present study. Human DRG neurons where isolated from organ donors for which full legal and ethical consent had been obtained. The DRGs were stripped of connective tissue and enzymatically digested at 37° C. for 2 h using AnaBios' proprietary enzyme mixture. Samples were then centrifuged for 2 min at 200×g, supernatant was gently removed, and tissue was washed 4 times, followed by resuspension in DMEM/F12 (Lonza) containing 1% horse serum (Thermo Fisher Scientific). Ganglia were mechanically dissociated by gentle trituration through the fire-polished tip of a sterile glass Pasteur pipette. […] Cells were maintained in culture at 37° C. with 5% CO2 in DMEM/F12 supplemented with 10% horse serum (Thermo Fisher Scientific), 2 mM glutamine, 25 ng/mL hNGF (Cell Signaling Technology, Danvers, Mass.), 25 ng/mL GDNF (Peprotech), and penicillin/streptomycin (Thermo Fisher Scientific). Half of the culture media was replaced with fresh media every 3 days.
Cells were loaded with 3 M Fluo-8-AM (AAT Bioquest) containing 0.1% Pluronic F-127 (Sigma) for 20 min. at room temperature. Extracellular solution contained in (mM): 145 NaCl, 3 KCl, 2 CaCl2), 1 MgCl2, 10 HEPES, 10 glucose adjusted to pH 7.4 with NaOH. […]

SMILES: CCN(CC)CC(=O)Nc1c(C)cccc1C [lidocaine]
- sensitivity of the maximal response to EFS to lidocaine: exhibited sensitivity
